One assay addresses tPA (Homo sapiens, UniProt P00750). Description: inhibition of tPA, dissociation constant Ki.
The target in the next assay is plasma kallikrein (Homo sapiens, UniProt P03952). Description: inhibition of plasma kallikrein, dissociation constant Ki.
The next assay addresses factor Xa (Bos taurus, UniProt P00743). Kind of assay: inhibition of factor Xa, dissociation constant Ki. Conditions: Table 1. The assay is classed as biochemical. The procedure:
(§1) The biological activity of the compounds of the present invention was determined in vitro as well as in vivo.

A further assay addresses T1, trypsin (Bos taurus, UniProt P00760).
T1 sequence (P00760 24-246): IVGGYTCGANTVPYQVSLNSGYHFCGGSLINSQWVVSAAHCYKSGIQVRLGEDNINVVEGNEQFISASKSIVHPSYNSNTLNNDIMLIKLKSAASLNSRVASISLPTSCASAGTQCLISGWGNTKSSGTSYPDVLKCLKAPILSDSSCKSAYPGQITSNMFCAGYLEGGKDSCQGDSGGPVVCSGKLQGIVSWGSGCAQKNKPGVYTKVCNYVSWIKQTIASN
Description: inhibition of trypsin, dissociation constant Ki. The assay is classed as biochemical. More on the design: thrombin and the related enzymes trypsin, plasmin, factor Xa, factor XIIa. As to conditions: Table 1; read-out: Ki, Trypsin. How it is done:
as §1

The target in the next assay is T2, factor XIIa (Homo sapiens, UniProt P00748).
T2 sequence (P00748 373-615 limits assumed): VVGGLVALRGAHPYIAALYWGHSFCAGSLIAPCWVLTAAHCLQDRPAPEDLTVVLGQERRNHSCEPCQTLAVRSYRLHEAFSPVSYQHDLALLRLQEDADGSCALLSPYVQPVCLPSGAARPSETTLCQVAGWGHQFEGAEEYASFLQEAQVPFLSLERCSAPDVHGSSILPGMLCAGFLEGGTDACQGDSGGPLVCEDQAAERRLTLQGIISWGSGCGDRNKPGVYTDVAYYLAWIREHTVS
Description: inhibition of factor XIIa, dissociation constant Ki.

Assay [1] deals with T3, thrombin (Bos taurus, UniProt P00735).
In another assay the target is plasmin (Homo sapiens, UniProt P00747). Description: inhibition of plasmin, dissociation constant Ki.
Sequence of plasmin (P00747 581-810 limits assumed): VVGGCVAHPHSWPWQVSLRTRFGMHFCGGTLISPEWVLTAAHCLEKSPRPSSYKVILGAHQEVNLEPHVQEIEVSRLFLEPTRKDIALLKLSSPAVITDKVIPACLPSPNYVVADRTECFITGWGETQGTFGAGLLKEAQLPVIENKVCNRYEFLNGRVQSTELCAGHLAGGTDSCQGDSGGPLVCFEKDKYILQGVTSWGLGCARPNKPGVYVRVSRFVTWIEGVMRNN
Sequence of plasmin (P00747 97-580 partner limits assumed): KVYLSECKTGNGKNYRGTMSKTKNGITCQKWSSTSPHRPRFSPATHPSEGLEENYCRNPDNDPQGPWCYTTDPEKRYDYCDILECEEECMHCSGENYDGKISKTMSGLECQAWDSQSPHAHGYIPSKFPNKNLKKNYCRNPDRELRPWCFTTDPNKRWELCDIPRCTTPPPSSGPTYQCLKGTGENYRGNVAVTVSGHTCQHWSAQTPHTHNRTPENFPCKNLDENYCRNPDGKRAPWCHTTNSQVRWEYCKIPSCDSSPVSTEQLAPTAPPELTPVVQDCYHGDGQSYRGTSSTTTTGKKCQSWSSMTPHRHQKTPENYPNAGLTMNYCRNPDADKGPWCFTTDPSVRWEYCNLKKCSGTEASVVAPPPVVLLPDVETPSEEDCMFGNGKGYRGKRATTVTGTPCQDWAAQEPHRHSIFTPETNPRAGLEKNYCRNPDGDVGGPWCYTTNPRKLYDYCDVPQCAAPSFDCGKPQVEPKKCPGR
In the next assay the target is glandular kallikrein (Sus scrofa, UniProt P00752). Description: inhibition of glandular kallikrein, dissociation constant Ki.
Sequence of glandular kallikrein (P00752 8-246): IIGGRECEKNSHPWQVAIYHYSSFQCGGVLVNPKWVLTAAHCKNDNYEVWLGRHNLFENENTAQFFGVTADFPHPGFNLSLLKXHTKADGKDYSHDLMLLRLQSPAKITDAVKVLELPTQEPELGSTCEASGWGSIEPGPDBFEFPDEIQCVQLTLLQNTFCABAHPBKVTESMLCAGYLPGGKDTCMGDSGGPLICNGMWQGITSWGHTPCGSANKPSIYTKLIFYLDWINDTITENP
For assay [2], the target named is T3, thrombin. Kind of assay: biochemical.
In assay [3] the test system is coagulation in human plasma. Description: thrombin time (TT) in human plasma.
Assay [4] relates to coagulation in human plasma. Kind of assay: prothrombin time (PT, Quick value) in human plasma.
In assay [5] the test system is coagulation in human plasma. Description: activated partial thromboplastin time (aPTT) in human plasma.
Setting [6] is: read-out: Ki, Thrombin, Table 1.

“And” between values parts separate entries of the source, which are not always exact repeats. Equal values may be shown once. Where a name gives a salt, the structure may show the parent alone. Read-outs that look alike come from different tables or passages of the source.

Sequence of plasma kallikrein (P03952 391-638 limits assumed, species assumed): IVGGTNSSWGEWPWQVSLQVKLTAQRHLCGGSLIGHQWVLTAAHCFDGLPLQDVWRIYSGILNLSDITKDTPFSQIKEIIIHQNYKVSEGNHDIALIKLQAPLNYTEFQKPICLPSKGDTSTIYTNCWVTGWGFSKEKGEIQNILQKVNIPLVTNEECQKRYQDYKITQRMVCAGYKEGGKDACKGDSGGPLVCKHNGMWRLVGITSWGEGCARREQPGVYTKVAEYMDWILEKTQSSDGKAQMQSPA
Sequence of plasma kallikrein (P03952 20-390 partner limits assumed, species assumed): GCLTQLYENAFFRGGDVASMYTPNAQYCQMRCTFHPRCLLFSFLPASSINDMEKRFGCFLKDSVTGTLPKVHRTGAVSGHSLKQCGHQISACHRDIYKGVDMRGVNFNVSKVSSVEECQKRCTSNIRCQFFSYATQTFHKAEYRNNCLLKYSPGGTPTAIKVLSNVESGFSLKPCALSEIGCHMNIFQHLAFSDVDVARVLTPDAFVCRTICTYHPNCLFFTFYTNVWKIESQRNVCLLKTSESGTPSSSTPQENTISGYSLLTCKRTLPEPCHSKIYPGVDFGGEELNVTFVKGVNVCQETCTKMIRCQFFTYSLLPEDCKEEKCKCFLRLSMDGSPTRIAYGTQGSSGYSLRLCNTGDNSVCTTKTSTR
Sequence of tPA (P00750 36-562): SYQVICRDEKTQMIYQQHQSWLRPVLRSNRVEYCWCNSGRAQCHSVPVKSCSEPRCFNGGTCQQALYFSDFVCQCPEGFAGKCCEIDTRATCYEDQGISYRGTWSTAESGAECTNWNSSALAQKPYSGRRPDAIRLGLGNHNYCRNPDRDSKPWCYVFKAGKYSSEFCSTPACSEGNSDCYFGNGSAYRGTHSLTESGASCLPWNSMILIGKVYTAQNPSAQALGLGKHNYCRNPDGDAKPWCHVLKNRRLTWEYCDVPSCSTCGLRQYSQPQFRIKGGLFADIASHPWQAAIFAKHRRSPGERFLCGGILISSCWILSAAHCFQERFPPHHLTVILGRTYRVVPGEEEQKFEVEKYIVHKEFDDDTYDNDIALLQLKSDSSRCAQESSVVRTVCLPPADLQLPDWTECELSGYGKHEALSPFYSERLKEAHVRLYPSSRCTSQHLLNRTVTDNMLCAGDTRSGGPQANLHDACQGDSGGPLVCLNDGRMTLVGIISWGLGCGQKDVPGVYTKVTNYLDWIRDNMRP
Sequence of factor Xa (P00743 234-492 limits assumed): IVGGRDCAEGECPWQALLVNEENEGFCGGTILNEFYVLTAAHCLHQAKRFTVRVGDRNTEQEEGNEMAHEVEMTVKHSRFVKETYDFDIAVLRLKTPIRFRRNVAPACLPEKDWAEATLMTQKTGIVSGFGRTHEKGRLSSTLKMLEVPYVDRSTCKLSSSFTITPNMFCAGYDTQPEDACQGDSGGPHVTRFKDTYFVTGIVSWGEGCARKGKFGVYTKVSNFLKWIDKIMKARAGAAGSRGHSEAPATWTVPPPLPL
Sequence of factor Xa (P00743 41-180 partner limits assumed): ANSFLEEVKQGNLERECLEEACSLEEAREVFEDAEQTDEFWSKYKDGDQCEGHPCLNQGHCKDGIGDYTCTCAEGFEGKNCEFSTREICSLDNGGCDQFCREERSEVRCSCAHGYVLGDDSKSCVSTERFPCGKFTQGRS

As for `CN(C)C(=O)N1CCN(C(=O)C(Cc2cccc(C(=N)N)c2)NS(=O)(=O)c2cccc3ccccc23)CC1` (stereo not shown) [AMD 1-Naph CO2 N(Me)2], the Ki on tPA (read-out: Ki, tPA, Table 1) was 270 µM; at plasma kallikrein (read-out: Ki, Plasma kallikr., Table 1) it was 37 µM; on factor Xa, 5.9 µM; at trypsin it was 0.25 µM; on factor XIIa (read-out: Ki, Factor XIIa, Table 1), 72 µM; on thrombin [1] (setting [6]), 0.068 µM. Besides, the inhibitory constant (Ki) was 4.8 µM on plasmin (read-out: Ki, Plasmin, Table 1) and more than 1000 µM at glandular kallikrein (read-out: Ki, Gland. kallikr., Table 1).
`CN(C)C(=O)N1CCN(C(=O)C(Cc2cccc(C(=N)N)c2)NS(=O)(=O)c2ccc3ccccc3c2)CC1` (stereo not shown) [AMD 2-Naph CO-N(Me)2]: the Ki on tPA was more than 1000 µM; at thrombin [2], 0.013 µM; on plasma kallikrein (Ki, Plasma kallikr., Table 1), 47 µM and 28 µM; at factor Xa it was 24 µM and 22 µM; on trypsin it was 0.049 µM; at factor XIIa (Ki, Factor XIIa, Table 1) it was 200 µM and 130 µM. The Ki at thrombin [1] (setting [6]) was 0.0088 µM; at plasmin, 6.2 µM; on plasmin (read-out: Ki, Plasmin, Table 1), 6.1 µM; at glandular kallikrein, more than 1000 µM.
For `N=C(N)c1cccc(CC(NS(=O)(=O)c2ccc3ccccc3c2)C(=O)N2CCN(CCO)CC2)c1` (stereo not shown) [AMD 2-Naph EtOH], the Ki at tPA was more than 1000 µM; on plasma kallikrein it was 74 µM; at factor Xa, 35 µM; at factor XIIa (Ki, Factor XIIa, Table 1), more than 1000 µM; on thrombin [1] (read-out: Ki, Thrombin), 0.058 µM; at plasmin (read-out: Ki, Plasmin, Table 1), 42 µM. On glandular kallikrein, this compound gave a Ki of more than 1000 µM.
Turning to `N=C(N)c1cccc(CC(NS(=O)(=O)c2ccc3ccccc3c2)C(=O)N2CCN(C=O)CC2)c1` (stereo not shown) [AMD 2-Naph For], the inhibitory constant (Ki) is more than 1000 µM at tPA; 16 µM at plasma kallikrein; 19 µM on factor Xa; 83 µM on factor XIIa; 0.037 µM on thrombin [1] (read-out: Ki, Thrombin); 6.3 µM on plasmin (read-out: Ki, Plasmin, Table 1). The compound further gave an inhibition constant (Ki) on glandular kallikrein of 440 µM.
`N=C(N)c1cccc(CC(NS(=O)(=O)c2ccc3ccccc3c2)C(=O)N2CCN(S(=O)(=O)c3ccccc3)CC2)c1` (stereo not shown) [AMD 2-Naph SO2 -Ph]: the inhibition constant (Ki) at tPA is more than 1000 µM; on plasma kallikrein, 36 µM; on factor Xa, 24 µM; at factor XIIa it was 120 µM; at thrombin [1] (setting [6]) it was 0.041 µM; at plasmin (read-out: Ki, Plasmin, Table 1), 19 µM. At glandular kallikrein, this compound showed a Ki of more than 1000 µM.
On to `Cc1ccc(S(=O)(=O)N2CCN(C(=O)C(Cc3cccc(C(=N)N)c3)NS(=O)(=O)c3ccc4ccccc4c3)CC2)cc1` (stereo not shown) [AMD 2-Naph SO2 -Tol], for which the Ki was more than 1000 µM at tPA; 30 µM at plasma kallikrein; 24 µM on factor Xa; more than 1000 µM on factor XIIa; 0.022 µM on thrombin [1] (setting [6]); 15 µM at plasmin (read-out: Ki, Plasmin, Table 1). Moreover, the Ki at glandular kallikrein is more than 1000 µM.
As for `CCS(=O)(=O)N1CCN(C(=O)C(Cc2cccc(C(=N)N)c2)NS(=O)(=O)c2ccc3ccccc3c2)CC1` (stereo not shown) [AMD 2-Naph SO2 Et], the inhibition constant Ki was determined as 820 µM on tPA; 58 µM on plasma kallikrein; 24 µM on factor Xa; 212 µM on factor XIIa; 0.044 µM at thrombin [1] (setting [6]); 3.5 µM on plasmin (read-out: Ki, Plasmin, Table 1). The inhibitory constant (Ki) at glandular kallikrein was more than 1000 µM.
As for `N=C(N)c1cccc(CC(NS(=O)(=O)c2ccc3ccccc3c2)C(=O)N2CCN(S(=O)(=O)c3ccc4ccccc4c3)CC2)c1` (stereo not shown) [AMD 2-Naph SO2-2-Naph], the inhibition constant (Ki) on tPA was more than 1000 µM; on plasma kallikrein, 22 µM; on factor Xa, 25 µM; on factor XIIa, 90 µM; at thrombin [1] (setting [6]), 0.024 µM; at plasmin (read-out: Ki, Plasmin, Table 1) it was 11 µM. The compound further gave an inhibition constant (Ki) on glandular kallikrein of more than 1000 µM.
For the compound `COc1cc(C)c(S(=O)(=O)NC(Cc2cccc(C(=N)N)c2)C(=O)N2CCN(S(C)(=O)=O)CC2)c(C)c1C` (stereo not shown) [AMD Mtr SO2 Me], the inhibitory constant (Ki) at tPA is more than 1000 µM; on plasma kallikrein, 150 µM; at factor Xa it was 120 µM; on factor XIIa it was 630 µM; on thrombin [1] (setting [6]), 0.032 µM; on plasmin (read-out: Ki, Plasmin, Table 1), 18 µM. This compound came in with an inhibition constant (Ki) at glandular kallikrein of more than 1000 µM.
As to `CC(=O)N1CCN(C(=O)C(Cc2cccc(C(=N)N)c2)NS(=O)(=O)c2ccc3c(c2)C(=O)c2ccccc2C3=O)CC1` (stereo not shown) [Compound 4], the inhibitory constant (Ki) is more than 1000 µM at tPA; 0.014 µM at thrombin [2]; 7 µM on plasma kallikrein; 4.1 µM at factor Xa; 0.026 µM on trypsin; 52 µM on factor XIIa. The values for the Ki on plasmin and at glandular kallikrein were 8.6 µM and more than 1000 µM, respectively. Besides, the “Concentr. to double the Thrombin time” value in assay [3] worked out at 0.085 µmol/L. Further, in assay [3], the “concentration to double the TT” value was “less than 10^-7 mol/1”. Besides, in assay [4], the “Concentr. to double the Prothrombin time” value worked out at 2.0 µmol/L. For the same compound, in assay [4], the “concentration to double the PT” value is recorded as not above 1 μmol/1. Besides, the “Concentr. to double the aPTT” value in [5] came out at 1.2 µmol/L. Besides, in assay [5], the “concentration to double the aPTT” value is given as not above 1 μmol/1.
Regarding `COc1cc(C)c(S(=O)(=O)N[C@@H](Cc2cccc(C(=N)N)c2)C(=O)N2CCN(S(C)(=O)=O)CC2)c(C)c1C` [Compound 9], the inhibition constant (Ki) at tPA is 600 µM; at thrombin [2], 0.02 µM; at plasma kallikrein it was 170 µM; on factor Xa, 48 µM; at trypsin, 0.86 µM; on factor XIIa, more than 1000 µM. In addition, the Ki is 8.2 µM on plasmin and more than 1000 µM at glandular kallikrein. Besides, in assay [3], the “Concentr. to double the Thrombin time” value stood at 0.12 µmol/L. Further, the “Concentr. to double the Prothrombin time” value in assay [4] was 1.1 µmol/L. In addition, in [5], the “Concentr. to double the aPTT” value amounted to 0.57 µmol/L.
In the case of `Cc1c(C)c(S(=O)(=O)N[C@@H](Cc2cccc(C(=N)N)c2)C(=O)N2CCN(S(C)(=O)=O)CC2)c(C)c2c1OC(C)(C)CC2` [Compound 10, Pmc-3-amidino-(L)-phenylalanine-4-methylsulfonyl piperazide hydrochloride], the Ki at tPA was 600 µM; on thrombin [2], 0.0053 µM; on plasma kallikrein it was 110 µM; at factor Xa, 37 µM; on factor XIIa, more than 1000 µM; on glandular kallikrein it was more than 1000 µM. Besides, the “Concentr. to double the Thrombin time” value in assay [3] amounted to 0.10 µmol/L. Besides, in [4], the “Concentr. to double the Prothrombin time” value amounted to 0.8 µmol/L. In addition, the “Concentr. to double the aPTT” value in assay [5] is 0.44 µmol/L.
Regarding `CS(=O)(=O)N1CCN(C(=O)C(Cc2cccc(C(=N)N)c2)NS(=O)(=O)c2cccc3ccccc23)CC1` (stereo not shown) [Compound 11], the Ki was more than 1000 µM at tPA; 79 µM on plasma kallikrein; 9.7 µM at factor Xa; more than 1000 µM at factor XIIa; 0.026 µM at thrombin [1] (setting [6]); 0.026 µM on thrombin [1] (read-out: Thrombin inhibition Ki, Table 7). In addition, the Ki on plasmin (read-out: Ki, Plasmin, Table 1) is 5 µM; on glandular kallikrein, more than 1000 µM.

Source of the values: patent US5607937A, “Piperazides of substituted phenylalanine derivatives as thrombin inhibitors” (priority 1993, dated 1997).
